Key:
infectious proteins = format: biochemical
[1] = test system: spores of Bacillus subtilis; experiment: Inactivation of Bacillus subtilis spores by HOBr and HOCl; format: cell-based
[2] = Application to human skin and mucous membranes; conditions: freshly prepared from HOCl containing 200 ppm of Cl
[3] = in solution; cited from earlier work

| SMILES | inactivation of infectious proteins (infectious proteins) | LRV ([1]; HOBr approximately 25 ppm, 20 seconds) | adverse effects on epithelial surfaces [2] | pKa [3] | effect on Bacillus spores ([1]; HOCl 25 ppm, 20 seconds of contact) | LRV ([1]; HOCl 230 ppm, 20 seconds) | LRVs ([1]; HOCl below 230 ppm, 20 seconds) |
| --- | --- | --- | --- | --- | --- | --- | --- |
| OBr [HOBr, hypobromous acid] | comparable levels to those achieved using HOCl | 6 | without any indication of adverse effects | higher than HOCl |  |  |  |
| OCl [HOCl, hypochlorous acid] |  |  |  | about 7.5 | no detectable effect | 6 | 2-4 |

From patent US20210308289A1, “INACTIVATION OF HIGHLY RESISTANT INFECTIOUS MICROBES AND PROTEINS WITH UNBUFFERED HYPOHALOUS ACID COMPOSITIONS” (BRIOTECH, INC., priority 2016, published 2021)
